What was measured:
DIPGX29 [1] = H3.3 K27M diffuse intrinsic pontine glioma line; assay: EC50 (inflection of fitted growth-inhibition curve) (log10 M)
Procedure, shortened: (§1)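 Patient-derived pHGG/DIPG cell lines and astrocyte controls were grown on 1% Geltrex-coated 384-well plates and exposed by pin tool to a 10-point threefold dilution series (mean top concentration 35 μM), in triplicate. Exposure was 7 days (iAstro 3 days) at 37 °C, 5% CO2. CellTiter-Glo luminescence was log2-transformed, normalised per plate to % activity between negative (solvent) and positive control wells, and pooled. EC50 and maximal response (yFin) come from the lowest-AICc three- or four-parameter log-logistic fit.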

DIPGX37 [2] = H3.3 K27M diffuse intrinsic pontine glioma line; assay: as above
Procedure, shortened: as §1

DIPGX29 [3] = assay: maximal growth inhibition (yFin) relative to DMSO / staurosporine; higher = more efficacious
Procedure, shortened: as §1

DIPGX37 [4] = assay: as above
Procedure, shortened: as §1

DIPGX29 [5] = assay: area under dose-response curve of % growth inhibition (log2 RLU vs DMSO / staurosporine), 1e-11 to 1e-4 M (% x log10 M); higher = more growth inhibition
Procedure, shortened: (§2)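 On 1% Geltrex-coated 384-well plates, patient-derived pHGG/DIPG cell lines and astrocytes were treated in triplicate across 10 threefold dilutions (mean top concentration 35 μM) for 7 days, with iAstro treated for 3 days, at 37 °C, 5% CO2. Log2-transformed CellTiter-Glo luminescence was normalised per plate to % activity between solvent and positive controls. Area under the curve was obtained by the trapezoid rule from a log-logistic fit, or from a smoothing spline when that fit failed.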

DIPGX37 [6] = assay: as above
Procedure, shortened: as §2

HGGX39 [7] = paediatric high-grade glioma line; assay: as above
Procedure, shortened: as §2

HGGX6 [8] = H3.3 G34R paediatric high-grade glioma line; assay: as above
Procedure, shortened: as §2

HGGX39 [9] = assay: EC50 (inflection of fitted growth-inhibition curve) (log10 M)
Procedure, shortened: as §1

HGGX6 [10] = assay: as above
Procedure, shortened: as §1

HGGX39 [11] = assay: maximal growth inhibition (yFin) relative to DMSO / staurosporine; higher = more efficacious
Procedure, shortened: as §1

HGGX6 [12] = assay: as above
Procedure, shortened: as §1

| SMILES | EC50 (log10 M) (DIPGX29 [1]) | EC50 (log10 M) (DIPGX37 [2]) | maximal growth inhibition (DIPGX29 [3]) [%] | maximal growth inhibition (DIPGX37 [4]) [%] | area under dose-response curve (DIPGX29 [5]) | area under dose-response curve (DIPGX37 [6]) | area under dose-response curve (HGGX39 [7]) | area under dose-response curve (HGGX6 [8]) | EC50 (log10 M) (HGGX39 [9]) | EC50 (log10 M) (HGGX6 [10]) | maximal growth inhibition (HGGX39 [11]) [%] | maximal growth inhibition (HGGX6 [12]) [%] |
| --- | --- | --- | --- | --- | --- | --- | --- | --- | --- | --- | --- | --- |
| Cn1cnc2c(F)c(Nc3ccc(Br)cc3Cl)c(C(=O)NOCCO)cc21 [SELUMETINIB] | -4.87 | -4.93 | 34.5 | 83.2 | 52.5 | 96 | 14.2 | 26.8 | – | – | – | – |
| CCC(C)(C)C(=O)O[C@H]1C[C@@H](C)C=C2C=C[C@H](C)[C@H](CC[C@@H]3C[C@@H](O)CC(=O)O3)[C@H]21 [SIMVASTATIN] | – | – | – | – | 29.8 | 39.1 | 63.6 | 24.4 | -4.94 | -5.07 | 53.9 | 22.6 |
| Nc1ncnc2c1ncn2[C@@H]1O[C@H](C[C@@H](N)CC[C@H](N)C(=O)O)[C@@H](O)[C@H]1O [SINEFUNGIN] | -5.35 | – | 21.5 | – | 29 | 0 | 0 | 4.01 | – | – | – | – |
| CCc1c2c(nc3ccc(O)cc13)-c1cc3c(c(=O)n1C2)COC(=O)[C@]3(O)CC [SN-38] | – | -6.02 | – | 49 | 68.7 | 125 | 167 | 65.4 | -6.74 | -6.77 | 46.5 | 23.2 |
| Nc1nc2[nH]cnc2c(=S)[nH]1 [THIOGUANINE] | -5.83 | -5.44 | 35.6 | 60.4 | 59.5 | 89.3 | 33.7 | 21.6 | -5.68 | – | 22.1 | – |
| O=C(NCC1(c2nc(-c3ccccc3)cs2)CCOCC1)c1cccc(-c2noc(C(F)(F)F)n2)c1 [TMP269] | – | -4.89 | – | 44.2 | 28 | 53.7 | 22.7 | 27.4 | -4.9 | -4.93 | 25.1 | 21 |
| CCC(COC(=O)c1cc(OC)c(OC)c(OC)c1)(c1ccccc1)N(C)C (stereo not given) [TRIMEBUTINE] | – | -5.38 | – | 25.6 | 28.3 | 35.6 | 60.1 | 19.8 | -5.08 | -4.87 | 55.5 | 22.6 |
| C=C[C@]1(C)C[C@@H](OC(=O)CSC(C)(C)CNC(=O)[C@H](N)C(C)C)[C@]2(C)[C@H](C)CC[C@]3(CCC(=O)[C@H]32)[C@@H](C)[C@@H]1O [VALNEMULIN] | -4.85 | -4.79 | 55.5 | 30.2 | 59.9 | 24 | 42.1 | 12 | -5.56 | – | 30.5 | – |
| CC[C@]1(O)C[C@@H]2CN(CCc3c([nH]c4ccccc34)[C@@](C(=O)OC)(c3cc4c(cc3OC)N(C)[C@H]3[C@@](O)(C(=O)OC)[C@H](OC(C)=O)[C@]5(CC)C=CCN6CC[C@]43[C@@H]65)C2)C1 [VINBLASTINE] | -5.63 | – | 50.4 | – | 88.8 | 58.2 | 53.5 | 58.8 | – | -5.46 | – | 23.5 |

From the supplement of paper PMC8253809
